Series [1] deals with rhinovirus A16. The series is described as follows: Rhinovirus A16 in H1-Hela cells. In kind it is cell-based. To be noted: 4H30 25 μg mL^−1, viral RNA copies in cells at 16 hpi, Fig. S6b. As for the experimental part:
(§1) Fig. S6. […] H1-Hela cells are the standard cell model for efficient Rhinovirus A16 (RV-A16) replication. RV-A1 (a) or RV-A16 (b) was treated with 4H30 (25 μg mL^−1) for one hour of infection and then the infectious media were replaced with MEM with 4H30 for viral culture. Viral RNA copies in cells were measured at 16 hpi. Virus in MEM was the control. No viral infection was the mock control. Data are presented as mean ± SD of indicated biological samples.

The conditions of series [2]: mouse, in vivo; cited from earlier work.
Series [3] relates to H1N1 virus. It counts as cell-based, influenza H1N1 virus.
The target in series [4] is T1, LDLR (Homo sapiens, UniProt P01130).
T1 construct: His; purchased Sino 10231-H081-50
The series is described as follows: ELISA binding assay, LDLR. The note with it: 4H30 1.0 µg, 0.25 µg and 0 µg, Fig. 4g. How it is done:
(§2) Peptides (1.0 µg per well) were dissolved in H2O. Influenza HA, NA (Sino, Cat^# 11058-V07B), or LDLR (Sino, Cat^# 10231-H081-50, 100 ng) dissolved in PBS was coated onto ELISA plates, incubated at 4°C overnight, and blocked with BSA at 4°C overnight. HA or VP1 was added to wells for binding and then determined by incubation with goat anti-His-HRP (Invitrogen, Cat^# R93125, 1: 2,000) at 37°C for 30 min. The reaction was developed by adding 100 µL of the TMB single solution (Life Technologies, Cat^# 002023) for 15 min at 37°C and stopped with 50 µL of 1 M H2SO4. Readings were obtained in an ELISA plate reader (Victor 1420 Multilabel Counter; PerkinElmer) at 450 nm.
(In an ELISA, binding on a coated surface is turned into a signal by an enzyme label.)

The test system of series [5] is H1N1 virus. The series is described as follows: Plaque reduction assay, H1N1 in MDCK cells. It counts as cell-based, influenza A/Hong Kong/415742/2009 (H1N1). The note with it: virus treated with 4H30 50 µg mL^−1, then diluted to 0.05 µg mL^−1 for plaque assay, Fig. 1e. How it is done:
The antiviral activity of peptides was measured by plaque reduction assay. Briefly, peptides were dissolved in PBS or 20% PBS. Peptides (0.2-25.0 µg mL^−1) were premixed with H1N1 virus at room temperature. After 30 min of incubation, the peptide-virus mixture was transferred to MDCK cells for infection at 37°C. At 1 hpi, infectious media were removed, and then 1% low melting agar was added to cells. Cells were fixed using 4% formalin at 2–3 dpi. […] (0.1%) was added to cells for cell staining to count viral plaques.
Background: Plaque reduction counts the foci of infection that form in a cell layer.

The subject of series [6] is rhinovirus A1. It counts as cell-based.
The subject of series [7] is rhinovirus A1. The series is described as follows: Rhinovirus A1 in H1-Hela cells. It counts as cell-based. To be noted: 4H30 25 μg mL^−1, viral RNA copies in cells at 16 hpi, Fig. S6a. As for the experimental part: as §1
Series [8] concerns rhinovirus A1. The series is described as follows: Viral attachment assay, rhinovirus A1 on RD cells. The note with it: virus treated with 4H30, attachment at 4°C, Fig. 4d. In kind it is cell-based. As for the experimental part: Viruses (H1N1 or rhinovirus A1) were treated with DMEM, 4H30 (25 µg mL^−1), or an influenza neutralization antibody at room temperature for 30 min and then added to cells for attachment at 4°C for 1 h. After washing the unbound virus, the attached virus on cells was measured by RT-qPCR. At least two experiments with biological duplication samples were included for each treatment.

Series [9] relates to neuraminidase activity of H1N1 virus. The series is described as follows: Viral neuraminidase assay (NA-STAR). The note with it: 4H30 50 and 12.5 µg mL^−1, 1 h, compared to zanamivir, Fig. S3. In kind it is biochemical, influenza H1N1 virus. How it is done:
Fig. S3. […] H1N1 virus was treated with MEM, zanamivir (5 μM and 1.25 μM), and 4H30 (50 μg mL^−1and 12.5 μg mL^−1) for 1 h. The neuraminidase activity was analysed using the Invitrogen NA-STAR INFLUENZA NIRD REAGENT (Cat^# 4374348). Data are presented as mean ± SD of indicated biological samples.

The test system of series [10] is MDCK cells. The experiment in a line: Cytotoxicity MTT assay in MDCK cells. To be noted: 24 h incubation, Fig. 1f. It counts as cell-based, canine. How it is done: Cytotoxicity of peptides was determined by detecting 50% cytotoxic concentration (CC50) using a tetrazolium-based colorimetric MTT assay ([27]). Cells were seeded in a 96-well cell culture plate at an initial density of 4 × 10^4 cells per well in MEM, supplemented with 10% FBS and incubated overnight. Cell culture media were removed, and then MEM supplemented with various concentrations of peptides and 1% FBS was added to each well. After 24 h incubation at 37°C, the MTT solution (5 mg mL^−1, 10 µL per well) was added to each well for incubation at 37°C for 4 h. Then, 100 µL of 10% SDS in 0.01M HCl was added to each well. After further incubation at room temperature with shaking overnight, the plates were read at OD570 using the VictorTM X3 Multilabel Reader (PerkinElmer, USA). Cell culture wells without peptides were used as the experiment control, and the medium was a blank control.

In series [11] the test system is NA. The series is described as follows: ELISA binding assay, NA. Details: species or system influenza virus. To be noted: 4H30 1 µg coated, NA 100 ng, anti-His antibody, Fig. 2a. How it is done:
as §2

Data on 1 substance can be found in publication PMC12326976 (Antimicrobial Agents and Chemotherapy, 2025).

Bridge positions count the residues as written; N and C are the ends. Ends that are not written are not given here. I, II: the chains in the order shown.

T1 sequence (P01130 22-860): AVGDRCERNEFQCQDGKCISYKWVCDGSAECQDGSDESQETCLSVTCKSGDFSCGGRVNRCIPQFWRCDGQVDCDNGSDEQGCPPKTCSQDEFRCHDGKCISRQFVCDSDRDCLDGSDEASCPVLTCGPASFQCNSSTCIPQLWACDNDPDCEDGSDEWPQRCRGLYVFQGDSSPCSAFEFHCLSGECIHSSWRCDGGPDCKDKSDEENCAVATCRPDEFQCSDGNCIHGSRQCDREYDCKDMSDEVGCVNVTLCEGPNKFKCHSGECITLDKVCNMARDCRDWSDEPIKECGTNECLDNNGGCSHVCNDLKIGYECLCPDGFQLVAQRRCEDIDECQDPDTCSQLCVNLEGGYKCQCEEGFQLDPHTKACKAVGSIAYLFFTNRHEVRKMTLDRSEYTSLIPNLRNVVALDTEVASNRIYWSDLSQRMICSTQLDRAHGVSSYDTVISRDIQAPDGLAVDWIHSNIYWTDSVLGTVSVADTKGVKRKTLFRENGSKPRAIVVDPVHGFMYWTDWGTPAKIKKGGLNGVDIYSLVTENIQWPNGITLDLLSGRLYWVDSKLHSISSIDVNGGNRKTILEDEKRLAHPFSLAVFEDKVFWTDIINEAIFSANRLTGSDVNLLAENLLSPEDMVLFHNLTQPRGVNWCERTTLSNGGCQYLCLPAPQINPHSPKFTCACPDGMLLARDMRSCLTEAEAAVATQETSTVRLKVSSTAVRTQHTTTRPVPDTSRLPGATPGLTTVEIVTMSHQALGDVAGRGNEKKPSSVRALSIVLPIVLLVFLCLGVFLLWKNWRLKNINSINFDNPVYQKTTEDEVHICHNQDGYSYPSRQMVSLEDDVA

Consider “I: GAICHPVFCPRRYKQIGTCGLPGTKCCKKPKK / II: GAICHPVFCPRRYKQIGTCGLPGTKCCKKPK / III: GAICHPVFCPRRYKQIGTCGLPGTKCCKKP / IV: GAICHPVFCPRRYKQIGTCGLPGTKCCKKP (amide I:31-IV:C, I:32-II:C, II:31-III:C; cysteines drawn unpaired) [4H30]”, for which the “inhibition of rhinovirus A16 in H1-Hela cells” value in [1] is listed as “did not show antiviral activity against rhinovirus A16”. For the same substance, in series [2], the toxicity in mice result is on record as “without causing apparent toxicity”. Besides, in [3], the “H1N1 replication, cells treated before and after infection (1h-Pre, 1h-Post)” value was “did not show significant antiviral activity when cells were treated before and after viral infection”; the “H1N1 replication, virus treated before infection” value is recorded as “inhibited viral replication when the virus was treated with 4H30 before viral infection”. Besides, in [4], the “binding to LDLR” value is recorded as “bound to the LDLR receptor of rhinovirus”. Also, in series [5], the “antiviral activity after treating virus and 1,000-fold dilution” value was “displayed significant antiviral activity against the virus”. Further, in series [6], the “RV-A1 replication, cells (1h-Pre) or virus (Pre-mix) treated before infection” value is listed as “significantly inhibited viral replication when cells or viruses were treated with 4H30 before viral infection”; the “RV-A1 replication, cells treated after infection (1h-Post and 2h-Post)” value is on record as “showed reduced antiviral activity when cells were treated after viral infection”; the “antiviral activity after treating rhinovirus and dilution” value is “did not show antiviral activity against rhinovirus”; the “antiviral activity when added after virus attachment (4H30-Post)” value was “antiviral activity diminished when rhinovirus was attached to cells at 4 °C and was treated with 4H30 at 1 hpi”. Further, the “antiviral activity when present during viral infection (4H30-Pre)” value in [6] is given as “showed significant antiviral activity when treating virus during viral infection”. The “inhibition of rhinovirus A1 in H1-Hela cells” value in series [7] is recorded as “inhibited rhinovirus A1 in H1-Hela cells”. Further, the “rhinovirus attachment to RD cells” value in series [8] is “reduced rhinovirus attachment to RD cells”. In addition, the “effect on neuraminidase activity” value in series [9] is reported as “did not affect neuraminidase activity”. The “cytotoxicity in MDCK cells” value in series [10] is on record as “did not show noticeable toxicity in MDCK cells”. Further, in series [11], the “binding to NA” value is on record as “not effectively bound to NA”.
